Results: article PMC5700055, “Structural basis of cholesterol binding by a novel clade of dendritic cell modulators from ticks” (Scientific Reports, 2017)

Target: T1, Japanin (Rhipicephalus appendiculatus, UniProt M1MR49)
T1 construct: polyhistidine-tagged recombinant secretory lipocalin, Sf9 baculovirus; 18 kDa; N-glycosylated at Asn35 and Asn131; homodimer; disulphides Cys28-Cys150, Cys114-Cys138; modelled residues 1-154
T1 sequence (M1MR49 25-176): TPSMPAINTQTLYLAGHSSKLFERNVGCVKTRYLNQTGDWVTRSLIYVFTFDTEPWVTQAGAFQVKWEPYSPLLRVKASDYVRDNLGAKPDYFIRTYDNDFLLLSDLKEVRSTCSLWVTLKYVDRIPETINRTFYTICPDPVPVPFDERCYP
Test: X-ray crystallography ([…] and […] Å)
Format: binding
Details: co-purified ligand, no cholesterol added; one per monomer in closed lipocalin barrel pocket; crystals pH 6.9-7.2 (4boe) and pH 4.5 (4bqu), 21 °C

CC(C)CCC[C@@H](C)[C@H]1CC[C@H]2[C@@H]3CC=C4C[C@@H](O)CC[C@]4(C)[C@H]3CC[C@]12C [CLR, cholesterol]
X-ray crystallography (2.2 and 2.4 Å): each molecule in the crystals binds one molecule of cholesterol
